Reference: patent US10167288B2, “Substituted pyrazolylpyrazole derivative and use of same as herbicide” (KYOYU AGRI CO., LTD., priority 2015, dated 2019)

Legend:
Assay type in all cases: in vivo
Galinsoga parviflora = test: Weed foliar treatment test (Test Example 4); details: 10 g a.i./10 a; foliar spray at 4.0 to 5.0 leaf stage of Digitaria ciliaris (plant height 10 cm to 15 cm); 20 days, 25° C.
Experimental: (§1) 4. Weed Foliar Treatment Test
(§2) Field soil was filled into a 1/4500 are pot followed by seeding with Digitaria ciliaris and Galinsoga parviflora, covering with soil and cultivating in a glass greenhouse at an average atmospheric temperature of 25° C.
(§3) Wettable powders of Target Compound (I) shown in Table 1 prepared in compliance with the preparation examples were diluted with water to the prescribed amount of chemical and uniformly sprayed onto the weeds using 100 liters of sprayed water per 10 are when Digitaria ciliaris had grown to the 4.0 to 5.0 leaf stage (plant height: 10 cm to 15 cm).
(§4) After treating for 20 days in a glass greenhouse at an average atmospheric temperature of 25° C., the herbicidal efficacy thereof was investigated.
(§5) Evaluation of herbicidal efficacy was carried out in the same manner as the above-mentioned Test Example 1.

Digitaria ciliaris [1] = test: Weed foliar treatment test (Test Example 4); details: 10 g a.i./10 a; foliar spray at 4.0 to 5.0 leaf stage of Digitaria ciliaris (plant height 10 cm to 15 cm); 20 days, 25° C.
Experimental: as §1, §2, §3, §4, §5

Amaranthus retroflexus [2] = test: Farming soil treatment test; details: soil surface spray prior to weed growth, 30 days, 30° C.
Experimental: (§6) 2. Farming Soil Treatment Test Field soil was filled into a 1/6000 are pot followed by seeding with Digitaria ciliaris Chenopodium album and Amaranthus retroflexus and covering with soil. Wettable powders of compounds of formula (I) shown in Table 1 prepared in compliance with the preparation examples were diluted with water to the prescribed amount of chemical and uniformly sprayed onto each soil surface layer using 100 liters of sprayed water per 10 are prior to weed growth following seeding. After treating for 30 days in a glass greenhouse at an average atmospheric temperature of 30° C., the herbicidal efficacy thereof was investigated. Evaluation of herbicidal efficacy was carried out in the same manner as the above-mentioned Test Example 1.

Chenopodium album [3] = test: Farming soil treatment test; details: soil surface spray prior to weed growth, 30 days, 30° C.
Experimental: as §6

Digitaria ciliaris [4] = test: Farming soil treatment test; details: soil surface spray prior to weed growth, 30 days, 30° C.
Experimental: as §6

Scirpus juncoides = test: Paddy herbicidal activity test; details: dropped into paddy water at 3.5 leaf stage of Echinochloa crus-galli, 30 days, 30° C., vs untreated group
Experimental: (§7) 1. Paddy Herbicidal Activity Test
(§8) Rice paddy soil was filled into a 1/10000 are pot followed by the addition of suitable amounts of water and chemical fertilizer, kneading, seeding with Echinochloa crus-galli, Monochoria vaginalis and Scirpus juncoides and maintaining in an irrigated state at a water depth of 3 cm.
(§9) Wettable powders of Target Compound (I) shown in Table 1 prepared in compliance with the preparation examples were diluted with a suitable amount of water, rice plants in the 2.0 leaf stage were transplanted during 3.5 leaf stage of Echinochloa crus-galli, and treated by dropping in chemical in the prescribed amount per 10 are using a pipette.
(§10) After treating for 30 days in a glass greenhouse at an average atmospheric temperature of 30° C., the herbicidal efficacy thereof was investigated.
(§11) Evaluation of herbicidal efficacy was carried out by comparing growth inhibition rate (%) with an untreated group, while evaluation of phytotoxicity was carried out by comparing growth inhibition rate (%) with the state of a complete eradication group, and were evaluated at 11 levels indicated below.

Monochoria vaginalis = test: Paddy herbicidal activity test; details: dropped into paddy water at 3.5 leaf stage of Echinochloa crus-galli, 30 days, 30° C., vs untreated group
Experimental: as §7, §8, §9, §10, §11

Echinochloa crus-galli = test: Paddy herbicidal activity test; details: dropped into paddy water at 3.5 leaf stage of Echinochloa crus-galli, 30 days, 30° C., vs untreated group
Experimental: as §7, §8, §9, §10, §11

Oryza sativa = test: Paddy herbicidal activity test, phytotoxicity to transplanted rice; details: rice transplanted in the 2.0 leaf stage, 30 days, 30° C., vs complete eradication group
Experimental: as §7, §8, §9, §10, §11

Amaranthus retroflexus [5] = test: Weed foliar treatment test (Test Example 3); details: foliar spray at 1.0 to 2.0 leaf stage of Digitaria ciliaris, 3 weeks, 25° C.
Experimental: (§12) 3. Weed Foliar Treatment Test
(§13) Soil was filled into a 1/6000 are pot followed by seeding with Digitaria ciliaris, Chenopodium album and Amaranthus retroflexus, covering with soil, and cultivating in a glass greenhouse at an average atmospheric temperature of 25° C.
as §3, with “150” for “100”, “1.0” for “4.0”, “2.0” for “5.0”, “stage.” for “stage (plant height: 10 cm to 15 cm).”
(§14) After treating for 3 weeks in a glass greenhouse at an average atmospheric temperature of 25° C., the herbicidal efficacy thereof was investigated.
as §5

Chenopodium album [6] = test: Weed foliar treatment test (Test Example 3); details: foliar spray at 1.0 to 2.0 leaf stage of Digitaria ciliaris, 3 weeks, 25° C.
Experimental: as §12, §13
as §3, with “150” for “100”, “1.0” for “4.0”, “2.0” for “5.0”, “stage.” for “stage (plant height: 10 cm to 15 cm).”
as §14, §5

Digitaria ciliaris [7] = test: Weed foliar treatment test (Test Example 3); details: foliar spray at 1.0 to 2.0 leaf stage of Digitaria ciliaris, 3 weeks, 25° C.
Experimental: as §12, §13
as §3, with “150” for “100”, “1.0” for “4.0”, “2.0” for “5.0”, “stage.” for “stage (plant height: 10 cm to 15 cm).”
as §14, §5

| SMILES | herbicidal efficacy, Galinsoga parviflora (Galinsoga parviflora) | herbicidal efficacy, Digitaria ciliaris (Digitaria ciliaris [1]) | herbicidal efficacy, Amaranthus retroflexus (Amaranthus retroflexus [2]; 5 g a.i./10 a) | herbicidal efficacy, Amaranthus retroflexus (Amaranthus retroflexus [2]; 10 g a.i./10 a) | herbicidal efficacy, Chenopodium album (Chenopodium album [3]; 5 g a.i./10 a) | herbicidal efficacy, Chenopodium album (Chenopodium album [3]; 10 g a.i./10 a) | herbicidal efficacy, Digitaria ciliaris (Digitaria ciliaris [4]; 5 g a.i./10 a) | herbicidal efficacy, Digitaria ciliaris (Digitaria ciliaris [4]; 10 g a.i./10 a) | herbicidal efficacy, Scirpus juncoides (Scirpus juncoides; 1 g a.i./10 a) | herbicidal efficacy, Scirpus juncoides (Scirpus juncoides; 5 g a.i./10 a) | herbicidal efficacy, Monochoria vaginalis (Monochoria vaginalis; 1 g a.i./10 a) | herbicidal efficacy, Monochoria vaginalis (Monochoria vaginalis; 5 g a.i./10 a) | herbicidal efficacy, Echinochloa crus-galli (Echinochloa crus-galli; 1 g a.i./10 a) | herbicidal efficacy, Echinochloa crus-galli (Echinochloa crus-galli; 5 g a.i./10 a) | phytotoxicity, Oryza sativa (Oryza sativa; 1 g a.i./10 a) | phytotoxicity, Oryza sativa (Oryza sativa; 5 g a.i./10 a) | herbicidal efficacy, Amaranthus retroflexus (Amaranthus retroflexus [5]; 5 g a.i./10 a) | herbicidal efficacy, Amaranthus retroflexus (Amaranthus retroflexus [5]; 10 g a.i./10 a) | herbicidal efficacy, Chenopodium album (Chenopodium album [6]; 5 g a.i./10 a) | herbicidal efficacy, Chenopodium album (Chenopodium album [6]; 10 g a.i./10 a) | also measured |
| --- | --- | --- | --- | --- | --- | --- | --- | --- | --- | --- | --- | --- | --- | --- | --- | --- | --- | --- | --- | --- | --- |
| CC(C)COC(=O)Nc1c(C#N)cnn1-c1nn2c(c1Cl)CCCC2 [Compound 10] | 10 (100%) | 10 (100%) |  |  |  |  |  |  |  |  |  |  |  |  |  |  |  |  |  |  |  |
| CCOC(=O)Nc1c(C#N)cnn1-c1nn2c(c1Cl)CCCC2 [Compound 1, Ethyl N-(1-(3-chloro-4,5,6,7-tetrahydropyrazolo[1,5-a]pyridin-2-yl)-4-cyanopyrazol-5-yl) Carbamate] | 10 (100%) | 10 (100%) | 10 (100%) | 10 (100%) | 10 (100%) | 10 (100%) | 10 (100%) | 10 (100%) | 10 (100%) | 10 (100%) | 10 (100%) | 10 (100%) | 10 (100%) | 10 (100%) | 1 (10% to less than 20%) | 1 (10% to less than 20%) | 10 (100%) | 10 (100%) | 10 (100%) | 10 (100%) | herbicidal efficacy, Digitaria ciliaris (Digitaria ciliaris [7]; 5 g a.i./10 a): 10 (100%); herbicidal efficacy, Digitaria ciliaris (Digitaria ciliaris [7]; 10 g a.i./10 a): 10 (100%) |
| CCCOC(=O)Nc1c(C#N)cnn1-c1nn2c(c1Cl)CCCC2 [Compound 4] | 10 (100%) | 10 (100%) |  |  |  |  |  |  |  |  |  |  |  |  |  |  |  |  |  |  |  |
| COC(=O)Nc1c(C#N)cnn1-c1nn2c(c1Cl)CCCC2 [Compound 7] | 10 (100%) | 10 (100%) | 10 (100%) | 10 (100%) | 9 (90% to less than 100%) | 10 (100%) | 10 (100%) | 10 (100%) | 9 (90% to less than 100%) | 10 (100%) | 10 (100%) | 10 (100%) | 10 (100%) | 10 (100%) | 1 (10% to less than 20%) | 1 (10% to less than 20%) | 10 (100%) | 10 (100%) | 10 (100%) | 10 (100%) | herbicidal efficacy, Digitaria ciliaris (Digitaria ciliaris [7]; 5 g a.i./10 a): 10 (100%); herbicidal efficacy, Digitaria ciliaris (Digitaria ciliaris [7]; 10 g a.i./10 a): 10 (100%) |
